US20260092039A1, “DUAL INHIBITORS FOR THE TREATMENT OF ALZHEIMER'S DISEASE” (UNIVERSITAT DE BARCELONA, priority 2023, published 2026)

How the values were obtained:
[1] = system: primary mouse cortical neurons; experiment: MTT viability assay in mouse primary cortical neurons; format: cell-based
Experimental: The compounds were diluted from 250 mM DMSO stocks to a 100 mM stock in DMSO. Thereafter, compounds were diluted to 100 μM, 20 μM, 5 μM, 1 μM, 0.2 μM, 0.05 μM, 0.01 μM and 0.001 μM dilution in medium, so that the final DMSO concentration in the well was 0.1% for all conditions. Stock solutions were stored at −20° C. until further use.
Isolation and treatment of primary mouse cortical neurons: Primary cortical neurons were prepared from timed pregnant wild-type C57BL/6JRccHsd mice at E16.5-E18. Animals were sacrificed by carbon dioxide and embryos were dissected in Calcium and Magnesium free Hanks Balanced Salt Solution (CMF-HBSS) containing 15 mM HEPES and 10 mM NaHCO3, pH 7.2. Embryos were decapitated, skin and skull gently removed and cortical hemispheres were separated. After removing meninges and brain stem, the cortex was isolated, chopped with a sterile razor blade in Chop solution (Hibernate-E without Calcium containing 2% B-27) and digested in 2 mg/mL papain (Worthington) dissolved in Hibernate-E without Calcium for 30 min at 30° C. Cortices were triturated for 10-15 times with a fire-polished silanized Pasteur pipette in Hibernate-E without Calcium containing 2% B-27, 0.01% DNaseI, 1 mg/mL BSA, and 1 mg/mL Ovomucoid Inhibitor. Undispersed pieces were allowed to settle by gravity for 1 min and the supernatant was centrifuged for 3 min at 228 g. The pellet was resuspended in Hibernate-E containing 2% B-27, 0.01% DNaseI, 1 mg/mL BSA, 1 mg/mL Ovomucoid Inhibitor and diluted with Hibernate-E containing 2% B-27. After the second centrifugation step (3 min at 228 g), the pellet was resuspended in nutrition medium without glutamate (Neurobasal, 2% B-27, 0.5 mM glutamine, 1% Penicillin-Streptomycin). Cells were counted in a hemacytometer and seeded in nutrition medium on poly-D-lysine pre-coated plates. Cells were cultured at 37° C.; 95% humidity and 5% CO2. All wells were handled the same way. On DIV8, cells were treated with the compounds for the evaluation of the neurotoxic effect. On DIV9, the MTT and LDH assays were performed as described below. The experiments were performed in six technical replicates for all groups per experiment.
MTT viability assay: Viability of cultures was determined on DIV9 by the MTT assay using a plate-reader (570 nm). MTT solution was added to each well in a final concentration of 0.5 mg/mL. After 2 h the MTT containing medium was aspirated. Cells were lysed in 3% SDS and the formazan crystals were dissolved in isopropanol/HCl. Optical density was measured with a plate-reader at wavelength 570 nm. Cell survival rate was expressed as optical density (OD). Values were calculated as percent of control values (vehicle control).

LPS stimulated BV2 cells = experiment: Cytokine release in LPS stimulated BV2 cells; format: cell-based, murine; details: 24 h
Experimental: Compounds of formula I were diluted from 250 mM DMSO stock solutions to a 10 mM stock in DMSO. Thereafter, the compounds were diluted to 10 μM and 1 μM in medium, so that the final DMSO concentration in the well was 0.1% for all conditions. The stock solutions were stored at −20° C. until further use.
Culture and treatment of BV-2 cells: The murine microglial cell line BV-2 was cultivated in Dulbecco's modified eagle medium (DMEM) supplemented with 10% fetal calf serum (FCS), 1% penicillin/streptomycin and 2 mM L-glutamine (culture medium). For the lipopolysaccharide (LPS) stimulation assay, 20,000 BV-2 cells per well (uncoated 96 well plates) were plated out. After 48 h, the medium was changed to treatment medium (DMEM, 5% FCS, 2 mM L-glutamine) and cells were maintained in treatment medium for the remaining culture period. After changing cells to treatment medium, the compounds were administered 1 h before LPS stimulation (Sigma-Aldrich; L6529; 1 mg/mL stock in ddH2O, final concentration in well: 100 ng/mL (dilutions in medium)). Cells treated with vehicle and LPS alone served as controls. All wells were handled the same way. After 24 h of stimulation, cell supernatants were collected for the cytokine measurement. The experiment was performed in n=6 technical replicates for all groups.
Cytokine measurement: The samples were diluted 1:2 and analysed for 4 cytokines (IL-1β, IL-2, IL-6, TNF-α) with a commercially available immunosorbent assay kit (U-plex, K15069L, Mesoscale Discovery) according to the instructions of the manufacturer. In brief, 25 μL of diluent 41 and 25 μL sample or respective standard were placed into wells of the pre-coated U-plex plate and incubated on an orbital shaker at room temperature for 1 h. Plates were washed 3 times with phosphate buffered saline with 0.05% Tween 20 (PBST) and thereafter 50 μL of detection antibody were added. Plates were again incubated on an orbital shaker at room temperature for 1 h. After another 3 washing steps with PBST, 150 μL of Mesoscale Discovery (MSD) GOLD Read Buffer were added and plates were read on Sector imager. Data were evaluated in comparison to calibration curves provided in the kit.
Statistics: Basic statistical analysis was performed. Group differences were evaluated by e.g. one-way ANOVA followed by a posthoc test, if appropriate.

SMILES | primary cortical neuronal cell viability, MTT ([1]; compound 0.001 μM) | primary cortical neuronal cell viability, MTT ([1]; compound 0.01 μM) | primary cortical neuronal cell viability, MTT ([1]; compound 0.05 μM) | primary cortical neuronal cell viability, MTT ([1]; compound 0.2 μM) | primary cortical neuronal cell viability, MTT ([1]; compound 1 μM) | primary cortical neuronal cell viability, MTT ([1]; compound 5 μM) | primary cortical neuronal cell viability, MTT ([1]; compound 20 μM) | primary cortical neuronal cell viability, MTT ([1]; compound 100 μM) | IL-1β level (LPS stimulated BV2 cells; compound 1 μM) | IL-2 level (LPS stimulated BV2 cells; compound 1 μM) | IL-6 level (LPS stimulated BV2 cells; compound 1 μM) | TNF-α level (LPS stimulated BV2 cells; compound 1 μM) | IL-1β level (LPS stimulated BV2 cells; compound 10 μM) | IL-2 level (LPS stimulated BV2 cells; compound 10 μM) | IL-6 level (LPS stimulated BV2 cells; compound 10 μM) | TNF-α level (LPS stimulated BV2 cells; compound 10 μM)
CCC12CC3CC(C1)CC(NC(=O)NCCCn1cncc1C)(C3)C2 [Id, 1-(3-ethyladamantan-1-yl)-3-[3-(5-methyl-1H-imidazol-1-yl)propyl]urea] | 110 % of vehicle control | 107 % of vehicle control | 100 % of vehicle control | 99 % of vehicle control | 99 % of vehicle control | 93 % of vehicle control | 89 % of vehicle control | 53 % of vehicle control | 46 % of vehicle control | 38 % of vehicle control | 34 % of vehicle control | 98 % of vehicle control | 73 % of vehicle control | 26 % of vehicle control | 24 % of vehicle control | 84 % of vehicle control
Cc1cncn1CCCNC(=O)NC1C2CC3CC(C2)CC1C3 (stereo not shown) [Ii, 1-(adamantan-2-yl)-3-[3-(5-methyl-1H-imidazol-1-yl)propyl]urea] | 101 % of vehicle control | 95 % of vehicle control | 99 % of vehicle control | 96 % of vehicle control | 101 % of vehicle control | 101 % of vehicle control | 101 % of vehicle control | 55 % of vehicle control | 86 % of vehicle control | 66 % of vehicle control | 63 % of vehicle control | 104 % of vehicle control | 125 % of vehicle control | 48 % of vehicle control | 62 % of vehicle control | 103 % of vehicle control
Cc1cncn1CCCNC(=O)NC12CC3CC(CC(C)(C3)O1)C2 [Ir, 1-[3-(5-methyl-1H-imidazol-1-yl)propyl]-3-(3-methyl-2-oxaadamantan-1-yl)urea] | 97 % of vehicle control | 97 % of vehicle control | 93 % of vehicle control | 99 % of vehicle control | 101 % of vehicle control | 99 % of vehicle control | 99 % of vehicle control | 87 % of vehicle control | 77 % of vehicle control | 52 % of vehicle control | 37 % of vehicle control | 107 % of vehicle control | 94 % of vehicle control | 37 % of vehicle control | 38 % of vehicle control | 102 % of vehicle control
CCC12CC3CC(C1)CC(NC(=O)NCCCn1cncc1C)(C3)O2 [Is, 1-(3-ethyl-2-oxaadamantan-1-yl)-3-[3-(5-methyl-1H-imidazol-1-yl)propyl]urea] | 104 % of vehicle control | 102 % of vehicle control | 103 % of vehicle control | 96 % of vehicle control | 101 % of vehicle control | 103 % of vehicle control | 101 % of vehicle control | 86 % of vehicle control | 95 % of vehicle control | 66 % of vehicle control | 65 % of vehicle control | 104 % of vehicle control | 124 % of vehicle control | 48 % of vehicle control | 64 % of vehicle control | 104 % of vehicle control
